According to DBAASP:
Values after ≈ are worked out from the molar mass of the structure shown.

Experiments:
Assay in all cases: ≥ marks a high value that may be exact or a test limit, other limits are often not marked, values filed in µg/mL are converted to µM
[1] = test system: Pseudomonas aeruginosa Ps4
[2] = test system: Escherichia coli ATCC 25922
[3] = test system: Salmonella enterica subsp. enterica serovar Typhimurium ATCC 14028
[4] = test system: Bacillus cereus ATCC 11778
[5] = test system: Klebsiella aerogenes ATCC 13048
[6] = test system: Staphylococcus aureus ATCC 29213
[7] = test system: Escherichia coli DSM 1103
[8] = test system: Staphylococcus epidermidis DSM 1798
[9] = test system: Staphylococcus aureus DSM 1104
[10] = test system: Pseudomonas aeruginosa DSM 1117
[11] = test system: Staphylococcus aureus ATCC 12600
[12] = test system: Escherichia coli ATCC 11775
[13] = test system: Escherichia coli NCTC 10418

Row | SMILES | MIC [1] | MIC [7] | MIC [8] | MIC [9] | MIC [10] | other results
1 | CC[C@H](C)[C@H](NC(=O)[C@H](CC(N)=O)NC(=O)[C@H](CCCN=C(N)N)NC(=O)[C@H](CCC(N)=O)NC(=O)[C@H](Cc1c[nH]c2ccccc12)NC(=O)[C@@H](N)Cc1ccccc1)C(=O)N[C@@H](CCCN=C(N)N)C(=O)N[C@@H](CCCCN)C(=O)N[C@H](C(=O)N[C@@H](CO)C(N)=O)C(C)C [FWQRNIRKVS] | ≥ 187 µM |  |  |  |  | 
2 | CC[C@H](C)[C@H](N)C(=O)N[C@@H](CC(C)C)C(=O)NCC(=O)N[C@@H](CCCCN)C(=O)N[C@@H](CC(C)C)C(=O)N[C@@H](Cc1c[nH]c2ccccc12)C(=O)N[C@@H](CCC(=O)O)C(=O)NCC(=O)N[C@@H](CC(C)C)C(=O)N[C@@H](CCCCN)C(=O)N[C@@H](CO)C(=O)N[C@@H](CC(C)C)C(=O)N[C@@H](Cc1ccccc1)C(N)=O [ILGKLWEGLKSLF] |  |  |  |  |  | MIC [2]: 33.2 µM (≈ 50 µg/mL); MIC [3]: 66.5 µM (≈ 99.9 µg/mL); MIC [4]: ≥ 66.5 µM; MIC [5]: ≥ 66.5 µM; MIC [6]: 33.2 µM (≈ 50 µg/mL)
3 | CC[C@H](C)[C@H](NC(=O)CNC(=O)[C@@H](NC(=O)[C@H](C)N)C(C)C)C(=O)NCC(=O)N[C@@H](C)C(=O)N[C@@H](CC(C)C)C(=O)N[C@@H](Cc1ccccc1)C(=O)N[C@@H](CC(C)C)C(=O)NCC(=O)N[C@@H](Cc1ccccc1)C(=O)N[C@@H](CC(C)C)C(=O)NCC(=O)N[C@@H](C)C(=O)N[C@@H](C)C(=O)NCC(=O)N[C@@H](CO)C(=O)N[C@H](C(=O)N[C@@H](CCSC)C(=O)NCC(=O)N[C@@H](C)C(=O)N[C@@H](CCCN=C(N)N)C(=O)N[C@@H](CO)C(N)=O)[C@@H](C)O [AVGIGALFLGFLGAAGSTMGARS] |  | ≥ 117 µM | ≥ 117 µM | ≥ 117 µM | ≥ 117 µM | 
4 | CC(C)C[C@H](NC(=O)[C@H](CCCN=C(N)N)NC(=O)[C@@H](NC(=O)[C@@H]1CCCN1C(=O)[C@@H]1CCCN1C(=O)[C@@H]1CCCN1C(=O)[C@H](CC(C)C)NC(=O)[C@H](CCCN=C(N)N)NC(=O)[C@@H](NC(=O)[C@@H]1CCCN1C(=O)[C@@H]1CCCN1C(=O)[C@@H]1CCCN1C(=O)[C@H](CC(C)C)NC(=O)[C@H](CCCN=C(N)N)NC(=O)[C@@H](N)C(C)C)C(C)C)C(C)C)C(=O)N1CCC[C@H]1C(=O)N1CCC[C@H]1C(=O)N1CCC[C@H]1C(=O)O [VRLPPPVRLPPPVRLPPP] |  | ≥ 122 µM | ≥ 122 µM | ≥ 122 µM | ≥ 122 µM | 
5 | CC[C@H](C)[C@H](NC(=O)[C@H](CCCN=C(N)N)NC(=O)CNC(=O)[C@H](C)NC(=O)[C@@H](NC(=O)[C@H](CCCN=C(N)N)NC(=O)[C@H](C)NC(=O)[C@@H](NC(=O)[C@H](CCCN=C(N)N)NC(=O)CNC(=O)[C@H](C)NC(=O)[C@@H](NC(=O)[C@H](CCCN=C(N)N)NC(=O)[C@H](C)NC(=O)[C@@H](NC(=O)[C@H](CCCN=C(N)N)NC(=O)CNC(=O)[C@H](C)NC(=O)[C@@H](NC(=O)[C@@H](N)CCCN=C(N)N)[C@@H](C)CC)[C@@H](C)CC)[C@@H](C)CC)[C@@H](C)CC)[C@@H](C)CC)C(=O)N[C@@H](C)C(N)=O [RIAGRIARIAGRIARIAGRIA] |  | 6 µM (≈ 13.4 µg/mL) | 2 µM (≈ 4.46 µg/mL) | 3 µM (≈ 6.69 µg/mL) | 26 µM (≈ 58 µg/mL) | 
6 | CC[C@H](C)[C@H](NC(=O)[C@H](CCCN=C(N)N)NC(=O)[C@@H](NC(=O)[C@H](CCCN=C(N)N)NC(=O)[C@H](CCC(N)=O)NC(=O)[C@H](Cc1c[nH]c2ccccc12)NC(=O)[C@@H](N)Cc1ccccc1)[C@@H](C)CC)C(=O)N[C@@H](CCCN=C(N)N)C(=O)N[C@@H](CCCN=C(N)N)C(N)=O [FWQRIRIRR] | ≥ 188 µM |  |  |  |  | 
7 | CC[C@H](C)[C@@H]1NC(=O)[C@H](CC(C)C)NC(=O)[C@@H](NC(=O)[C@H](Cc2ccccc2)NC(=O)[C@H](CC(C)C)NC(=O)[C@H](CCCCN)NC(=O)[C@@H]2CCCN2C(=O)[C@H](CC(C)C)NC(=O)[C@H](C)NC(=O)[C@H](C)NC(=O)[C@H](CC(C)C)NC(=O)[C@H](C)NC(=O)[C@H](CC(C)C)NC(=O)[C@H](CO)NC(=O)[C@H](CC(C)C)NC(=O)[C@@H](N)CC(C)C)CSSC[C@@H](C(=O)O)NC(=O)[C@H](CCCCN)NC(=O)[C@H](CCCCN)NC(=O)[C@H](Cc2ccccc2)NC1=O [LLSLALAALPKLFCLIFKKC] |  |  |  |  |  | MIC [11]: 12.5 µM (≈ 27.5 µg/mL); MIC [12]: 25 µM (≈ 55.1 µg/mL)
8 | CC[C@H](C)[C@H](NC(=O)[C@H](CCCN=C(N)N)NC(=O)[C@H](Cc1c[nH]c2ccccc12)NC(=O)[C@H](CC(N)=O)NC(=O)[C@H](CCCN=C(N)N)NC(=O)[C@H](CCC(N)=O)NC(=O)[C@H](Cc1c[nH]c2ccccc12)NC(=O)[C@@H](N)Cc1ccccc1)C(=O)N[C@@H](CCCN=C(N)N)C(=O)N[C@@H](CCCN=C(N)N)C(N)=O [FWQRNWRIRR] | ≥ 165 µM |  |  |  |  | 
9 | CC[C@H](C)[C@H](NC(=O)[C@H](CC(N)=O)NC(=O)[C@H](CCCN=C(N)N)NC(=O)[C@H](C)NC(=O)[C@H](Cc1c[nH]c2ccccc12)NC(=O)[C@@H](N)Cc1ccccc1)C(=O)N[C@@H](CCCN=C(N)N)C(=O)N[C@@H](CCCCN)C(=O)N[C@H](C(=O)N[C@@H](CCCN=C(N)N)C(N)=O)C(C)C [FWARNIRKVR] | ≥ 186 µM |  |  |  |  | 
10 | CC[C@H](C)[C@H](NC(=O)[C@H](CC(N)=O)NC(=O)[C@H](CCCN=C(N)N)NC(=O)[C@H](CC(C)C)NC(=O)[C@H](Cc1c[nH]c2ccccc12)NC(=O)[C@@H](N)Cc1ccccc1)C(=O)N[C@@H](CCCN=C(N)N)C(=O)N[C@@H](CCCCN)C(=O)N[C@H](C(=O)N[C@@H](CCCN=C(N)N)C(N)=O)C(C)C [FWLRNIRKVR] | ≥ 180 µM |  |  |  |  | 
11 | CSCC[C@H](NC(=O)[C@H](Cc1c[nH]c2ccccc12)NC(=O)[C@@H]1CCCN1C(=O)[C@@H]1CCCN1C(=O)[C@H](Cc1ccccc1)NC(=O)[C@@H](NC(=O)[C@H](Cc1cnc[nH]1)NC(=O)[C@H](Cc1ccccc1)NC(=O)[C@@H](N)CO)C(C)C)C(=O)N[C@H]1CSSC[C@@H](C(=O)O)NC(=O)[C@H](CCCCN)NC(=O)[C@H](CCCCN)NC(=O)[C@H](CC(C)C)NC(=O)[C@H](CO)NC(=O)[C@H](CCCCN)NC1=O [SFHVFPPWMCKSLKKC] |  |  |  |  |  | MIC [13]: ≥ 70 µM
12 | CC[C@H](C)[C@H](NC(=O)[C@H](C)NC(=O)CNC(=O)[C@H](C)NC(=O)[C@H](CCCN=C(N)N)NC(=O)[C@H](CO)NC(=O)[C@H](C)NC(=O)[C@H](CCSC)NC(=O)CN)C(=O)N[C@@H](C)C(=O)NCC(=O)N[C@@H](CCCN=C(N)N)C(=O)N[C@H](C(=O)N[C@@H](C)C(=O)N[C@@H](CCCN=C(N)N)C(=O)N[C@H](C(=O)N[C@@H](C)C(=O)N[C@@H](CC(C)C)C(=O)N[C@@H](CCCN=C(N)N)C(=O)N[C@@H](C)C(=O)N[C@@H](CC(C)C)C(N)=O)C(C)C)[C@@H](C)CC [GMASRAGAIAGRIARVALRAL] |  | 7 µM (≈ 14.6 µg/mL) | 2 µM (≈ 4.16 µg/mL) | 4 µM (≈ 8.32 µg/mL) | ≥ 113 µM | 
